# Entries after “also recorded” stand apart in the source; their conditions may differ. Where no end group is shown, it is not given here. [ ]: non-standard residue; d: D form. Nba = nitrobenzyl amine (quencher); 2Abz = Nc1ccccc1C(=O)O
# Columns and labels:
# [1] = test system: P. aeruginosa PAO1 biofilms; assay: P. aeruginosa biofilm staining in the flow cell; type: cell-based, Pseudomonas aeruginosa PAO1; settings: 500 nM in medium, 4 h accumulation, flow 3 mL/h
# Description: Colonies of PAO1 wt labelled with the red fluorescent protein mCherry (pMP7605) were picked from a LB agar plate and transferred to 10 mL LB medium with Gentamicin 60 μg/ml to start an overnight culture. Incubation was done at 37° C. and 180 rpm overnight. A fresh culture was inoculated to an OD600nm of 0.02 (10 mL LB with Gentamicin 60 μg/mL) and incubated until the exponential growth phase was reached (OD600nm of 0.4 to 0.8). The bacterial suspension was diluted again to an OD600m of 0.1 and 300 μL were injected into a six-channel μ-slide (ibidi, Germany). The settling time was 30 min. The flow of 1:5 diluted LB medium with Gentamicin 60 μg/ml was 3 mL/h. The biofilms were grown in a heat system (ibidi, Germany) at 30° C. and for 48 h.
# After 48 h of biofilm growth, aggregates were stained by supplementing the divalent LecA ligand 57 and Fluorescein disodium salt 58 as a control to the medium. The final concentration of the supplements in the medium was 500 nM and constantly accumulated within the biofilm for 4 h by a flow rate of 3 mL/h. Washing was performed for 30 min with LB 1:5 diluted with Gentamicin 60 μg/mL.
# Analysis was done by using a fluorescence microscope Leica DMi8. […] The green fluorescein signal was detected by an excitation wavelength of 460 to 500 nm and an emission wavelength of 512 to 542 nm. Snapshots were normalized by using the Fiji software. […]
# [2] = Cleavage / stability in PA14-filtrate without human blood plasma; type: in vitro ADME, Pseudomonas aeruginosa PA14; settings: up to 24 h
# Description: P. aeruginosa PA14 was streaked on LB-agar plates (1% agar) from glycerol stocks and incubated at 37° C. overnight. 2-5 colonies were picked and dispersed in 10 mL LB (10 g/L trypton, 10 g/L NaCl, 5 g/L yeast extracts). This dispersion was incubated overnight at 37° C., 180 rpm under high humidity. The culture was centrifuged (4000 ref, room temperature, 10 min) and the supernatant was filtered (0.22 m pore size). […]
# A 1 mM solution of the studied compound was prepared in PBS (150 mM NaCl, 2.6 mM KCl, 1.4 mM KH2PO4, 10 mM Na2HPO4, pH 7.4) with 20% DMSO. 50 μL of this solution was diluted in 950 μL matrix or human plasma (spiked with 10% LB) on ice. After brief vortex, 100 μL were immediately treated with 100 μL ice-cold MeCN (spiked with […] diphenhydramine as internal standard). The rest of the solution was incubated at 37° C. and 500 rpm in an eppendorf thermomixer. At various time points (30, 60, 120, 180 min), 100 L sample were taken and treated as described above. […] The AUC of the parent drug and its cleavage products and the internal standard was quantified using Compass QuantAnalysis quantification software. The relative AUC was calculated by AUC (compound)/AUC(ISTD). Procaine was used as a positive control as it readily degrades in human plasma.
# LecA [3] = molecular target: T1, LecA (Pseudomonas aeruginosa, UniProt Q05097); assay: Isothermal titration calorimetry with LecA; type: binding
# T1 construct: made in house
# Description: Isothermal titration calorimetry was performed on an iTC200 (Malvern Panalytical) and the data were analyzed using Microcal Origin software (Malvern Panalytical). LecA in the cell was titrated with ligand in TBS/Ca^2+ buffer supplemented with 5% DMSO at 25° C. Steep titration slopes were the result of high amount of protein present and the high binding affinity of the ligand (high ‘value of c’).
# Isothermal titration calorimetry was performed on an iTC200 (Malvern Panalytical) and the data were analyzed using Microcal Origin software (Malvern Panalytical).
# LecA [4] = molecular target: T1, LecA; assay: Surface plasmon resonance with LecA; type: binding
# Description: Surface plasmon resonance experiments were performed on a BIACORE X100 instrument (GE Healthcare) at 25° C. as described by Zahorska et. al. 2020. Averages and standard deviations were calculated from three independent experiments.
# [5] = Stability in aqueous buffer; type: physicochemical; settings: Tris buffer (TBS/Ca2+), after 24 h
# LecA [6] = molecular target: T1, LecA; assay: Direct titration of fluorescent ligand with LecA in fluorescence polarization assay; type: binding
# MMP-2 = molecular target: T2, MMP-2 (Homo sapiens, UniProt P08253); assay: FRET-based cleavage assay with MMP-2; type: biochemical; settings: serial dilution of activated MMP-2
# T2 sequence (P08253 110-660): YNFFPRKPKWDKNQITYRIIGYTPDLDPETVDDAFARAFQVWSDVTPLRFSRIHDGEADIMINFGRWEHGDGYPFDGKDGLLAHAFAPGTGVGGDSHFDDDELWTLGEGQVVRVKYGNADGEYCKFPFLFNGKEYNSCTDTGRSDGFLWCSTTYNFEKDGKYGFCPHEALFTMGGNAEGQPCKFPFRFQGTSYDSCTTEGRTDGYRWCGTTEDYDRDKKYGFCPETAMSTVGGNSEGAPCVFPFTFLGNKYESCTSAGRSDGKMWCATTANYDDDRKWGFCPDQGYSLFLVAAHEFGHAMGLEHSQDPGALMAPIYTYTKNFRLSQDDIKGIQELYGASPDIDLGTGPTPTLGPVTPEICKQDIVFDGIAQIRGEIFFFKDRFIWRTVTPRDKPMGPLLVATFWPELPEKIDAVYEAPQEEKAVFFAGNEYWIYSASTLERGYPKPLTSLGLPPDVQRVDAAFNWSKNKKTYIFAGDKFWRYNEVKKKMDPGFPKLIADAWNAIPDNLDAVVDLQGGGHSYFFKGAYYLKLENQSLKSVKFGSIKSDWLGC
# Description: MMP-2 (50 μL, 0.2 μg/mL in 20 mM tris pH 7.5, 8 mM CaCl2, 119 mM NaCl, 20% Glycerol, 0.05% Brij 35, Cat #SAE0174-50UG, Sigma-Aldrich) was activated with 1 mM APMA (from 100 mM DMSO stock, Cat #AS—71158, AnaSpec) for 1 h at 37° C. Then, dilution series of the activated MMP-2 and of PA14-filtrate were prepared in PBS. SensoLyte 520 generic MMP substrate (Cat #AS—71158, AnaSpec) was diluted 1:100 in PBS. […] 10 μL dilution series was mixed with 10 μL MMP substrate or LasB substrate and fluorescence (λex=490 mn, λem=520 nm and λex=320 mn, λem=420 nm, for MMP substrate and LasB substrate, respectively) was recorded for 10 min (10 s interval).
# [7] = test system: T3, LasB cleavable substrate Abz-Ala-Gly-Leu-Ala-Nba (SEQ ID NO 3, labelled)
# T3 sequence: AGLA
# [8] = test system: T4, LecA-targeted prodrug 36 (peptide-based prodrug with the linker Ala-Gly-Leu-Ala, SEQ ID NO 3, between a LecA-targeting galactoside and fluoroquinolone 2)
# T4 sequence: AGLA
# T1 sequence (Q05097 whole entry): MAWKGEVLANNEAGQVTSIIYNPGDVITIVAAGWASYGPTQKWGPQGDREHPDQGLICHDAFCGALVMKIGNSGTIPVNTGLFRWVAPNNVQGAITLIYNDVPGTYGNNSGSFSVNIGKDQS
compound,measurement,setting,value
CC1=CC(C)=[N+]2C1=Cc1ccc(CCC(=O)NCCCN=[N+]=[N-])n1[B-]2(F)F [BDP FL azide],biofilm staining,[1],did not show any enrichment
"CC(C)C[C@H](N)C(=O)N[C@@H](C)C(=O)N[C@H]1CCN(c2cc3c(cc2F)c(=O)c(C(=O)O)cn3C2CC2)C1 [Compound 35, 7-((S)-3-((S)-2-((S)-2-amino-4-methylpentanamido)propanamido)pyrrolidin-1-vl)-1-cyclopropyl-6-fluoro-4-oxo-1,4-dihydroquinoline-3-carboxylic acid]",release of free drug from dipeptide-conjugates,[2],very slow; also recorded: only slowly released their antibiotic cargo
C#CCCN(Cc1ccc(NC(=O)CCc2ccc(O[C@@H]3OC(CO)[C@H](O)C(O)C3O)cc2)cc1)Cc1ccc(NC(=O)CCc2ccc(O[C@@H]3OC(CO)[C@H](O)C(O)C3O)cc2)cc1 (some centres unmarked) [Compound 55],Kd,LecA [3],0.0472 ± 0.0113 µM
same,Kd,LecA [4],0.0099 ± 0.0005 µM
O=C(CCc1ccc(O[C@@H]2OC(CO)[C@H](O)C(O)C2O)cc1)Nc1ccc(CN(CCc2cn(CCOCCOCCOCCNC(=S)Nc3ccc4c(c3)C(=O)OC43c4ccc(O)cc4Oc4cc(O)ccc43)nn2)Cc2ccc(NC(=O)CCc3ccc(O[C@@H]4OC(CO)[C@H](O)C(O)C4O)cc3)cc2)cc1 (some centres unmarked) [Compound 57],Kd,"LecA [3]; ITC, TBS/Ca2+ buffer, 5% DMSO, 25° C.",High affinity
same,Kd,LecA [4],0.0193 ± 0.0105 µM
same,degradation in buffer,[5],did not show any degradation
same,Kd,LecA [6],1.05 µM
Abz-Ala-Gly-Leu-Ala-Nba ([2Abz]AGLA-Nba) [LasB-substrate],cleavage of FRET substrate by MMP-2,MMP-2,rather stable; also recorded: very weak turnover
"matrix-metalloprotease 2 (MMP-2), activated with APMA",turnover of the LasB-substrate in a FRET-based cleavage assay (serial dilution of activated MMP-2),[7],Only a very weak turnover of the LasB-substrate was observed in a FRET-based cleavage assay at very high concentrations (>50 ng/mL final) of MMP-2
same,"Stability of prodrug 36 in presence of activated MMP-2, monitored by HPLC-MS",[8],No detectable metabolism was observed after 20 min or 3 d at 37 °C

# From patent US20250295790A1, “LECTIN-TARGETING CONJUGATES” (Helmholtz-Zentrum für Infektionsforschung GmbH, priority 2021, published 2025)
